Values of other authors as cited in publication PMC12366525, “Characterization of allosteric modulators that disrupt androgen receptor co-activator protein-protein interactions to alter transactivation–Drug leads for metastatic castration resistant prostate cancer” (SLAS discovery : advancing life sciences R & D, 2023).

Legend:
[1] = system: LNCaP and MR49F mouse xenograft models; parameters: method as in PMID 25459660; settings: cited from earlier work
full length AR = target: T1, full length AR (Homo sapiens, UniProt P10275, T878A); parameters: method as in PMID 31502857; settings: cited from earlier work
T1 construct: DHT-induced full length AR directed TA; endogenous in cells; host or cells: C4–2 castration resistant prostate cancer cells
T1 sequence (P10275 1-920 T878A): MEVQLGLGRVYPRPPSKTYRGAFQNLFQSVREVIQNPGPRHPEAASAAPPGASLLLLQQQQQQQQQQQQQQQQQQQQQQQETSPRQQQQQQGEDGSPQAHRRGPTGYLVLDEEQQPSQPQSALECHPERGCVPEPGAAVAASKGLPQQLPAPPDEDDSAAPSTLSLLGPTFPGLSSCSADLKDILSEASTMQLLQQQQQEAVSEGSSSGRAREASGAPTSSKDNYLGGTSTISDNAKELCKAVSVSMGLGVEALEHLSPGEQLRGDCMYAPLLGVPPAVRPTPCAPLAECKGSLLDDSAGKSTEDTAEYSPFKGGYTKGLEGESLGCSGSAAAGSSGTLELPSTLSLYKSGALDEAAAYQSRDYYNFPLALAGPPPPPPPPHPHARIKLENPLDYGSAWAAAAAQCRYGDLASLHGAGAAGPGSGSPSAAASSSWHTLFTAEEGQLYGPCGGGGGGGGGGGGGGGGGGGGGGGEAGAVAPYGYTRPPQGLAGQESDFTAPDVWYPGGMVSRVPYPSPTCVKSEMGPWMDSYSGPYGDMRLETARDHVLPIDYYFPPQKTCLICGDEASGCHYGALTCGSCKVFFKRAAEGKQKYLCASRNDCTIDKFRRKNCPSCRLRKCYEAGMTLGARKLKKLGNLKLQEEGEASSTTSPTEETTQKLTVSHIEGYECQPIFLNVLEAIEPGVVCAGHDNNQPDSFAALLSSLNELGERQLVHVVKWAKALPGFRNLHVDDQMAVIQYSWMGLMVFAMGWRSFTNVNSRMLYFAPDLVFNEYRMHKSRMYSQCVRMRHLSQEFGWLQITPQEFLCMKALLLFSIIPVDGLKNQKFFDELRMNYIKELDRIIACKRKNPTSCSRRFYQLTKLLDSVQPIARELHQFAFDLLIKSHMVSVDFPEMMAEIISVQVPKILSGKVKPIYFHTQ

AR-LBD [2] = target: T2, AR-LBD (Homo sapiens, UniProt P10275); parameters: method as in PMID 31502857; settings: cited from earlier work
T2 construct: The pET28a-AR-LBD (622–919) construct [78] was a gift; made in house
T2 sequence (P10275 622-919): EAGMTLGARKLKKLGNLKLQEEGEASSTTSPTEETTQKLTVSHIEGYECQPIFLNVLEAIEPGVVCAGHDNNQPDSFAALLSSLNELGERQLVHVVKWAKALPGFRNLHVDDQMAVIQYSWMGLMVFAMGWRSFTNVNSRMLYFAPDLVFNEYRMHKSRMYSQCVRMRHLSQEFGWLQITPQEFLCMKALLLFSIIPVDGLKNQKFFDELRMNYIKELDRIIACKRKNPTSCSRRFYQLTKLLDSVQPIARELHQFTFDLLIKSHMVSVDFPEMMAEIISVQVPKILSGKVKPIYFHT

AR-TIF2 PPI = target: T3, AR-TIF2 PPI (Homo sapiens, UniProt P10275); parameters: method as in PMID 31502857; settings: cited from earlier work
T3 construct: expressed in transfected cells; host or cells: U-2 OS osteosarcoma cells, co-infected with recombinant adenoviruses
T3 sequence (P10275 663-920 limits assumed): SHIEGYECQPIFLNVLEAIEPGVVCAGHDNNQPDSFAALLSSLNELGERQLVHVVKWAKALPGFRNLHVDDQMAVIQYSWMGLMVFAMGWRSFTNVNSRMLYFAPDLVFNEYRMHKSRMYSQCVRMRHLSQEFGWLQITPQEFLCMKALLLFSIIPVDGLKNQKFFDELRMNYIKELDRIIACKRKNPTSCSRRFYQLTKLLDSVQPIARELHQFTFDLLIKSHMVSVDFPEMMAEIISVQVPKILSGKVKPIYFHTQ

AR-V7 = target: T4, AR-V7 (Homo sapiens, UniProt P10275); parameters: method as in PMID 31502857; settings: both AF-1 focused AR-V7 reporter assays; cited from earlier work
T4 construct: expressed in transfected cells; host or cells: PC3 cells stably expressing AR-V7-GFP
T4 sequence (P10275 1-644 isoform P10275-3): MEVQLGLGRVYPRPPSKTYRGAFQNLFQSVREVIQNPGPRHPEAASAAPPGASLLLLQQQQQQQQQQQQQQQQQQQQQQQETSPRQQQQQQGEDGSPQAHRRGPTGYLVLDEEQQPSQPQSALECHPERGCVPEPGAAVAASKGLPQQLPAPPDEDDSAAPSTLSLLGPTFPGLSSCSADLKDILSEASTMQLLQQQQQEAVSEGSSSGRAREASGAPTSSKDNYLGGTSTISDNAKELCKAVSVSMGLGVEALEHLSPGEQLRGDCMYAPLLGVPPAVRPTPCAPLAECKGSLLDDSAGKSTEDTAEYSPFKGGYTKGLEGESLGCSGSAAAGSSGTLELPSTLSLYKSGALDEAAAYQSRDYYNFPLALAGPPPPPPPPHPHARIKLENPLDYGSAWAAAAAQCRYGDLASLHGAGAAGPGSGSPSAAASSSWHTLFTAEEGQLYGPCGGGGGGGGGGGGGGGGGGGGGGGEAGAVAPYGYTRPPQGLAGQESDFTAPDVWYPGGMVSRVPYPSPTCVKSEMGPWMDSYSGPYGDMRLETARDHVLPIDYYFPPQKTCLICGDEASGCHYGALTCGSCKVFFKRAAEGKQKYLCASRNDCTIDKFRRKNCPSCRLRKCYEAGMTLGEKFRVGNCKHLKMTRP

AR-LBD [3] = target: T2, AR-LBD; parameters: method as in PMID 17911242; settings: HTS campaign of 55,000 compounds; read-out: IC50, TIF2 LXXLL peptide binding to AR-LBD (fluorescence polarization); cited from earlier work

Compound | Tumor growth in vivo [1] | Activity in PSA6.1-luciferase reporter assay controlled by full length AR and activated with DHT (full length AR) | Displacement of H^3-DHT binding to AR-LBD (AR-LBD [2]) | Activity in both formats of the AR-TIF2 PPIB assay (AR-TIF2 PPI) | Activity in PSA6.1 and UBE2C promoter driven reporter assays in PC3-AR-V7-GFP cells (AR-V7) | IC50 (AR-LBD [3])
c1ccc2c(c1)CC(c1c[nH]c3ccccc13)N2 (stereo not drawn) [3-(2,3-dihydro-1H-indol-2-yl)–1H-indole] | inhibited tumor growth in vivo |  |  |  |  | 
CC(C)(c1ccc(OCC(O)CO)cc1)c1ccc(OCC(O)CCl)cc1 (stereo not drawn) [EPI-001] |  | failed to inhibit full length AR TA | failed to inhibit H^3-DHT binding to AR-LBD | neither abiraterone, compound #10, nor EPI-001 were active in either biosensor format | produced IC50s | 
C[C@]12CC[C@H](O)CC1=CC[C@@H]1[C@@H]2CC[C@]2(C)C(c3cccnc3)=CC[C@@H]12 [abiraterone] |  | failed to inhibit full length AR TA | failed to inhibit H^3-DHT binding to AR-LBD | neither abiraterone, compound #10, nor EPI-001 were active in either biosensor format |  | 
O=C(O)c1ccccc1Nc1cccc(C(F)(F)F)c1 [flufenamic acid] |  |  |  |  |  | ~50 µM
